Laboratory results from US9168259B2 (GRÜNENTHAL GMBH, priority 2010, dated 2015).

Target: T1, KCNQ2/3 channels (Homo sapiens, UniProt O43525+O43526)
T1 construct: expressed in transfected cells
Experiment: Fluorescence assay using a voltage sensitive dye (fluorimetry)
Format: cell-based
Conditions: CHO-K1 cells expressing KCNQ2/3; for Emax: CHO-K1, plateau effect relative to saturated retigabine (50 μM) = 100%, negative values = antagonistic, read-out: Fluorimetry % efficacy (retigabine = 100%); for EC50: IC50 where % efficacy is negative, read-out: Fluorimetry EC50/IC50
Description: Method I. Fluorescence Assay Using a Voltage Sensitive Dye (Fluorimetry)
These voltage-sensitive dyes are fluorescent dyes and, therefore, are forming the link between cell potential influenced by KCNQ modulation and fluorescence intensity. A KCNQ agonist leads to an opening of the channel, potassium and dye efflux, a following hyperpolarization and a reduction of the inner fluorescence intensity in a kinetic protocol. If applying an ion jump by KCl depolarization, KCNQ agonists increase the ΔF/F value. An antagonist performs vice versa, respectively.
Therefore, ‘fluorimetry EC50’ is a measure for the compound potency. The compound efficacy is mirrored by ‘fluorimetry % efficacy’ (‘% Efficacy’) and refers to the maximum response achievable by the test compound, i.e. the plateau effect. This drug's plateau effect is related to the plateau effect, which can be achieved by applying a saturated concentration of a reference compound, e.g. Retigabine (50 μM), in independent wells of the same experimental plate or series.
[…] CHO-K1 cells expressing KCNQ2/3 channels are cultivated adherently at 37° C., 5% CO2 and 95% humidity in cell culture bottles (e.g. 80 cm^2 TC flasks, Nunc) with DMEM-high glucose (Sigma Aldrich, D7777) including 10% FCS (PAN Biotech, e.g. 3302-P270521) or alternatively MEM Alpha Medium (1×, liquid, Invitrogen, #22571), 10% fetal calf serum (FCS) (Invitrogen, #10270-106, heat-inactivated) and the necessary selection antibiotics.
The cell number is determined using a CASY™ cell counter (TCC, Schärfe System). Depending on the optimal density for each individual cell line, 20,000-30,000 cells/well/100 μl are seeded onto 96-well Corning™ CellBIND™ assay plates (Flat Clear Bottom Black Polystyrene Microplates, #3340). Freshly seeded cells are then left to settle for one hour at room temperature, followed by incubation for 24 hours at 37° C., 5% CO2 and 95% humidity.
The voltage-sensitive fluorescent dye from the Membrane Potential Assay Kit (Red™ Bulk format part R8123 for FLIPR, MDS Analytical Technologies™) is prepared by dissolving the contents of one vessel Membrane Potential Assay Kit Red Component A in 200 ml of extracellular buffer (ES buffer, 120 mM NaCl, 1 mM KCl, 10 mM HEPES, 2 mM CaCl2, 2 mM MgCl2, 10 mM glucose; pH 7.4). After removal of the nutrient medium, the cells are washed once with 200 μl of ES buffer, then loaded for 45 min at room temperature in 100 μl of dye solution in the dark.
Fluorescence measurements are carried out in a BMG Labtech FLUOstar™, BMG Labtech NOVOstar™ or BMG Labtech POLARstar™ instrument (525 nm excitation, 560 nm emission, Bottom Read mode). After incubation with the dye, 50 μl of the test substances in the desired concentrations, or 50 μl of ES buffer for control purposes, are applied to the wells of the assay plate and incubated for 30 min at room temperature while being shielded from light. The fluorescence intensity of the dye is then measured for 5 min and the fluorescence value F1 of each well is thus determined at a given, constant time. 15 μl of a KCl solution are then added to each well (final concentration of potassium ions 92 mM). The change in fluorescence intensity is subsequently monitored until all the relevant values have been obtained (mainly 5-30 min). At a given time post KCl application, a fluorescence value F2 is determined, in this case at the time of the fluorescence peak.
For calculation, the fluorescence intensity F2 is corrected for the fluorescence intensity F1, and the activity (ΔF/F) of the target compound on the potassium channel is determined as follows:
In order to determine whether a substance has agonistic activity,
[formula] can be related to
[formula] of control wells.
[formula] is determined by adding to the well only the buffer solution instead of the test substance, determining the value F1K of the fluorescence intensity, adding the potassium ions as described above, and measuring a value F2K of the fluorescence intensity.

T1 sequence (O43526 whole entry): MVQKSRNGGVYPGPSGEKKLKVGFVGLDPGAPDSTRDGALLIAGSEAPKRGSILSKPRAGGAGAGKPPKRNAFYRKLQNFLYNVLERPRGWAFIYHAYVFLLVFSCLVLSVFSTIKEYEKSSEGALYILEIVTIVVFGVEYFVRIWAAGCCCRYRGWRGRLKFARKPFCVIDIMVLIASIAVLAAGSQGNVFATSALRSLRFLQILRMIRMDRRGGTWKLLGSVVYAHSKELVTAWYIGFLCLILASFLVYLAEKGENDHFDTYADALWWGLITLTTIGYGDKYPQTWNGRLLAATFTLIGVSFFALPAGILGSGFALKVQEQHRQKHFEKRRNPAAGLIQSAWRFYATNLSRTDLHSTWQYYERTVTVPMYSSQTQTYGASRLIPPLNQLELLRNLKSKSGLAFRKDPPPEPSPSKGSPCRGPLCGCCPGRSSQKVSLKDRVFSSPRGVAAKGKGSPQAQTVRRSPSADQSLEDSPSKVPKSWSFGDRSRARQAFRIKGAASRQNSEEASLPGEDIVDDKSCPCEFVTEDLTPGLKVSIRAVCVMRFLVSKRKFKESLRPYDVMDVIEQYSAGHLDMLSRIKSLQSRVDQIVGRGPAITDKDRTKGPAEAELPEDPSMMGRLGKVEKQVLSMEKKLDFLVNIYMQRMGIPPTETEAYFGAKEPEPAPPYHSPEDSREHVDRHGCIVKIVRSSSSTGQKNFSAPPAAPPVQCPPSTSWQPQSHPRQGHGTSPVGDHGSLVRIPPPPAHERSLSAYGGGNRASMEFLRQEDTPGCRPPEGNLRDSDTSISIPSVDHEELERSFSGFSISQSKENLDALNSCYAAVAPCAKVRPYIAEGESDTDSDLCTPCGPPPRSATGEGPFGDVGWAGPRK
T1 sequence (O43525 whole entry): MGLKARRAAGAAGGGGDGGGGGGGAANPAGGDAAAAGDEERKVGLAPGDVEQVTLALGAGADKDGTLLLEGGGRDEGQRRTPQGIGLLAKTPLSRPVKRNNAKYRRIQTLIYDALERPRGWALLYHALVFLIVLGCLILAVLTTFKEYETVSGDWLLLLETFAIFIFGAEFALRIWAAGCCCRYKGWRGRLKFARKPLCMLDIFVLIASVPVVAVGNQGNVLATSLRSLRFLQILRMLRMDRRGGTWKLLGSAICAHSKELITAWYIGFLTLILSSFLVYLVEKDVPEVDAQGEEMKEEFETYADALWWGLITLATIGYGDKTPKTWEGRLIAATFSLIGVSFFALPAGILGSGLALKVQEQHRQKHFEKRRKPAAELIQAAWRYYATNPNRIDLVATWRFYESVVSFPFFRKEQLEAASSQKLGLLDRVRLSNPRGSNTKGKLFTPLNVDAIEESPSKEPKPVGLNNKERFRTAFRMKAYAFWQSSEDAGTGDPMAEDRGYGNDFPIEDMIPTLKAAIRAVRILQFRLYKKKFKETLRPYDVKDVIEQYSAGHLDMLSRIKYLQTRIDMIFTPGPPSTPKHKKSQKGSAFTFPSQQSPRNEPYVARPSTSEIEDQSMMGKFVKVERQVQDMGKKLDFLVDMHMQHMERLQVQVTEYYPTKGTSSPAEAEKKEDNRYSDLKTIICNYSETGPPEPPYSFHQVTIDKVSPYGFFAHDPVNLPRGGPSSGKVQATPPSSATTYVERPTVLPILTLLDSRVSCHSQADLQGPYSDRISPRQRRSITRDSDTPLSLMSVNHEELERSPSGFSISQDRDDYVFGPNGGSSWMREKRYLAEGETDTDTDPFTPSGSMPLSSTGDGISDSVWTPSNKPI

Emax	EC50	SMILES
149%	2520 nM	CCSc1nc(N2CCC(=O)CC2)cc(C)c1C(=O)NCc1cccc(F)c1 [Example 16, 2-Ethylsulfanyl-N-[(3-fluorophenyl)-methyl]-4-methyl-6-(4-oxo-piperidin-1-yl)-pyridine-3-carboxylic acid amide]
21%	–	CCSc1nc(N2CCOCC2)cc(C)c1C(=O)NCc1ccc(F)cc1OC [Example 17, 2-Ethylsulfanyl-N-[(4-fluoro-2-methoxy-phenyl)methyl]-4-methyl-6-morpholin-4-yl-pyridine-3-carboxylic acid amide]
224%	98 nM	CCSc1nc(N2CCOCC2)cc(C)c1C(=O)NCc1ccc(F)cc1O [Example 18, 2-Ethylsulfanyl-N-[(4-fluoro-2-hydroxy-phenyl)methyl]-4-methyl-6-morpholin-4-yl-pyridine-3-carboxylic acid amide]
140%	782 nM	CCNc1nc(N2CCOCC2)cc(C)c1C(=O)NCc1cccc(F)c1 [Example 20, 2-Ethylamino-N-[(3-fluorophenyl)-methyl]-4-methyl-6-morpholin-4-yl-pyridine-3-carboxylic acid amide]
146%	1220 nM	COCCOc1nc(N2CCOCC2)cc(C)c1C(=O)NCc1cccc(F)c1 [Example 21, N-[(3-Fluorophenyl)-methyl]-2-(2-methoxy-ethoxy)-4-methyl-6-morpholin-4-yl-pyridine-3-carboxylic acid amide]
166%	790 nM	CCc1nc(N2CCOCC2)cc(C)c1C(=O)NCc1cccc(F)c1 [Example 22, 2-Ethyl-N-[(3-fluorophenyl)-methyl]-4-methyl-6-morpholin-4-yl-pyridine-3-carboxylic acid amide]
182%	113 nM	Cc1cc(N2CCOCC2)nc(C(C)C)c1C(=O)NCc1cccc(F)c1 [Example 23, N-[(3-Fluorophenyl)-methyl]-2-isopropyl-4-methyl-6-morpholin-4-yl-pyridine-3-carboxylic acid amide]
210%	308 nM	Cc1cc(N2CCOCC2)nc(N2CCCC2)c1C(=O)NCc1cccc(F)c1 [Example 24, N-[(3-Fluorophenyl)-methyl]-4-methyl-6-morpholin-4-yl-2-pyrrolidin-1-yl-pyridine-3-carboxylic acid amide]
162%	211 nM	CCSc1nc(N2CCCC2)cc(C)c1C(=O)NCc1cccc(F)c1 [Example 25, 2-Ethylsulfanyl-N-[(3-fluorophenyl)-methyl]-4-methyl-6-pyrrolidin-1-yl-pyridine-3-carboxylic acid amide]
155%	132 nM	CCSc1nc(N2CCc3ccccc3C2)cc(C)c1C(=O)NCc1cccc(F)c1 [Example 26, 2-Ethylsulfanyl-N-[(3-fluorophenyl)-methyl]-4-methyl-6-(1,2,3,4-tetrahydro-isoquinolin-2-yl)-pyridine-3-carboxylic acid amide]
132%	151 nM	CCSc1nc(N2CCc3cc(C(F)(F)F)ccc3C2)cc(C)c1C(=O)NCc1cccc(F)c1 [Example 27, 2-Ethylsulfanyl-N-[(3-fluorophenyl)-methyl]-4-methyl-6-[6-(trifluoromethyl)-1,2,3,4-tetrahydro-isoquinolin-2-yl]pyridine-3-carboxylic acid amide]
185%	236 nM	CCCc1nc(N2CCOCC2)cc(C)c1C(=O)NCc1ccc(F)cc1 [Example 29, N-[(4-Fluorophenyl)-methyl]-4-methyl-6-morpholin-4-yl-2-propyl-pyridine-3-carboxylic acid amide]
144%	1320 nM	CCSc1nc(N2CCC(OC)C2)cc(C)c1C(=O)NCc1cccc(F)c1 (stereo not drawn) [Example 30, 2-Ethylsulfanyl-N-[(3-fluorophenyl)-methyl]-6-(3-methoxy-pyrrolidin-1-yl)-4-methyl-pyridine-3-carboxylic acid amide]
23%	–	CCSc1nc(N2CCN(C)CC2)cc(C)c1C(=O)NCc1cccc(F)c1 [Example 31, 2-Ethylsulfanyl-N-[(3-fluorophenyl)-methyl]-4-methyl-6-(4-methyl-piperazin-1-yl)-pyridine-3-carboxylic acid amide]
166%	132 nM	CCSc1nc(N2CCCCC2)cc(C)c1C(=O)NCc1cccc(F)c1 [Example 32, 2-Ethylsulfanyl-N-[(3-fluorophenyl)-methyl]-4-methyl-6-piperidin-1-yl-pyridine-3-carboxylic acid amide]
110%	639 nM	CCSc1nc(N(C)C)cc(C)c1C(=O)NCc1cccc(F)c1 [Example 33, 6-Dimethylamino-2-ethylsulfanyl-N-[(3-fluorophenyl)-methyl]-4-methyl-pyridine-3-carboxylic acid amide]
37%	1830 nM	CCSc1nc(NC)cc(C)c1C(=O)NCc1cccc(F)c1 [Example 34, 2-Ethylsulfanyl-N-[(3-fluorophenyl)-methyl]-4-methyl-6-methylamino-pyridine-3-carboxylic acid amide]
153%	635 nM	CCSc1nc(N(C)CCOC)cc(C)c1C(=O)NCc1cccc(F)c1 [Example 35, 2-Ethylsulfanyl-N-[(3-fluorophenyl)-methyl]-6-(2-methoxy-ethyl-methyl-amino)-4-methyl-pyridine-3-carboxylic acid amide]
125%	6000 nM	CCSc1nc(NCCOC)cc(C)c1C(=O)NCc1cccc(F)c1 [Example 36, 2-Ethylsulfanyl-N-[(3-fluorophenyl)-methyl]-6-(2-methoxy-ethylamino)-4-methyl-pyridine-3-carboxylic acid amide]
148%	99 nM	Cc1cc(N2CCOCC2)nc(SC(C)C)c1C(=O)NCc1cccc(F)c1 [Example 37, N-[(3-Fluorophenyl)-methyl]-2-(isopropylsulfanyl)-4-methyl-6-morpholin-4-yl-pyridine-3-carboxylic acid amide]
143%	645 nM	COc1nc(N2CCOCC2)cc(C)c1C(=O)NCc1ccc(F)cc1 [Example 39, N-[(4-Fluorophenyl)-methyl]-2-methoxy-4-methyl-6-morpholin-4-yl-pyridine-3-carboxylic acid amide]
169%	571 nM	CCSc1nc(N2CCOCC2)cc(C)c1C(=O)NCCC(C)C [Example 42, 2-Ethylsulfanyl-4-methyl-N-(3-methyl-butyl)-6-morpholin-4-yl-pyridine-3-carboxylic acid amide]
189%	679 nM	CCSc1nc(N2CCOCC2)cc(C)c1C(=O)NCC1CCCC1 [Example 43, N-(Cyclopentyl-methyl)-2-ethylsulfanyl-4-methyl-6-morpholin-4-yl-pyridine-3-carboxylic acid amide]
116%	87 nM	CCSc1nc(N2CCOCC2)cc(C)c1C(=O)NCCC1CCCC1 [Example 44, N-(2-Cyclopentyl-ethyl)-2-ethylsulfanyl-4-methyl-6-morpholin-4-yl-pyridine-3-carboxylic acid amide]
151%	3140 nM	CCSc1nc(N2CCOCC2)cc(C)c1C(=O)NCc1cccc(F)n1 [Example 45, 2-Ethylsulfanyl-N-[(6-fluoro-pyridin-2-yl)-methyl]-4-methyl-6-morpholin-4-yl-pyridine-3-carboxylic acid amide]
